Data taken from patent US20090247646A1, “USE OF RESVERATROL AND DERIVATIVES THEREOF FOR PROMOTING THE WELLNESS STATE IN MAMMALS” (priority 2006, published 2009).

System: gene expression profile of heart, output variable Age
Assay: Classification of gene expression profile for age (Young/Old) using supervised learning, Support Vector Machine
Type: in vivo, mice
Protocol: Male B6C3F, mice (6-7 weeks of age) were purchased from Harlan Sprague Dawley. Mice were housed singly and provided water ad libitum. The control group (OC, N=5) was fed 98 kcal/week of modified AIN-93M semi-purified diet (Bio-serv, Frenchtown, N.J.), which provides approximately 15% fewer calories than the average ad libitum dietary intake. The treatment group (RES, N=5) was fed the same caloric intake as controls, but were supplemented with resveratrol 50 mg/kg diet (w/w) (3,4′,5-Trihydroxy-trans-stilbene; Sigma) from 14 months of age. Animals (OC and RES) were sacrificed at 30 months of age. Young animals were sacrificed at 5 months of age (YC, N=5). Hearts from all abovementioned groups were collected, immediately frozen in liquid nitrogen and stored at −80° C. until analysis.
Total RNA was extracted from frozen tissue by using TRIZOL reagent (Life Technologies, Grand Island, N.Y.). Polyadenylate [poly(A)^+] RNA was purified from total RNA with oligo-dT-linked oligotex resin (Qiagen, Valencia, Calif.). […]
For the classification analysis, supervised learning using Support Vector Machine (SVM) was performed based on supplied training data, “Young (YC)” and “Old (OC)” groups, to find rules for predicting the output variable “Age”. […] Results from the resveratrol group were then analysed using the Classification function for prediction of the output variable, “Age”. […]

## Oc1ccc(/C=C/c2cc(O)cc(O)c2)cc1 [resveratrol, 3,4′,5-Trihydroxy-trans-stilbene]
All 4 chips of resveratrol group
  Classification of chips for output variable Age: classified as Young
Mean of 4 chips of the RES group, YC 0.9998575, OC −1.023992
  Average of g (mean classification output of group): 0.3486
